Reference: patent US20240101546A1, “HETEROARYL-ACETYLENES, PHARMACEUTICAL COMPOSITIONS THEREOF, AND THEIR THERAPEUTIC APPLICATIONS” (Eubulus Biotherapeutics Inc., priority 2020, published 2024)

Legend:
[1] = tested on: lung cancer cell line NCI-H82; assay: Cell proliferation assay, NCI-H82 (CELL-TITER GLO); type: cell-based; conditions: Homo sapiens, NCI-H82, 72 h, NCI-H82 cells, 72 h incubation, cell viability by CELL-TITER GLO, top concentration 1 μM; read-out: EC50, Inhibition of NCl-H82 Cell Proliferation
Experimental: The activity of a compound was determined in a cell proliferation assay using the lung cancer cell line NCI-H82. Cells (1,000 cells per well) were cultured with RPMI1640 in a 384-well tissue culture plate. After incubated overnight, the compound was added at predetermined concentrations, starting with 1 μM and followed by a 3-fold serial dilution. After the cells were incubated for 72 h, cell viability was determined using a CELL-TITER GLO assay. The CELL-TITER GLO reagent (25 μL) was added to each well and the luminescence was measured by a multimode microplate reader after a brief period of shaking. EC50 values were determined for the compound. The results are summarized in Table 1, wherein A represents a value no greater than 200 nM, B represents a value greater than 200 nM but no greater than 1 μM, C represents a value greater than 1 μM but no greater than […], and D represents a value greater than 5 μM.

[2] = tested on: hepatocellular carcinoma cell line Hub-7; assay: Cell proliferation assay, Hub-7 (CELL-TITER GLO); type: cell-based; conditions: Hub-7 cells, 24 h incubation, cell viability by CELL-TITER GLO, top concentration 10 μM; read-out: EC50, Inhibition of Hub-7 Cell Proliferation
Procedure, shortened: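 Hub-7 cells, 4,000 per well, seeded overnight, then exposed 24 h to compound from 10 μM top in 3-fold serial dilution. Viability read by CELL-TITER GLO luminescence; EC50 derived and binned into potency categories.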

Compound	EC50 [1]	EC50 [2]
C#Cc1nc(NC(=O)N[C@H](C(N)=O)c2ccc(-c3cccc4ncsc34)cc2)cs1 [Compound A211, (S)-2-(4-(Benzo[d]thiazol-7-yl)phenyl)-2-(3-(2-ethynylthiazol-4-yl)ureido)-acetamide]	≤ 200 nM	
C#Cc1nc(NC(=O)N[C@@H](CO)c2ccc(N3CCCc4nn(C)cc43)cc2)cs1 [Compound A140, (R)-1-(2-Ethynylthiazol-4-yl)-3-(2-hydroxy-1-(4-(2-methyl-2,5,6,7-tetrahydro-4H-pyrazolo[4,3-b]pyridin-4-yl)phenyl)ethyl)urea]	≤ 200 nM	
C#Cc1ncc(NC(=O)N[C@@H](CO)C(=O)N2CCC3(CCCC3=O)CC2)s1 [Compound A156, (S)-1-(2-Ethynylthiazol-5-yl)-3-(3-hydroxy-1-oxo-1-(1-oxo-8-azaspiro[4.5]decan-8-yl)propan-2-yl)urea]	≤ 200 nM	
C#Cc1nc(NC(=O)N[C@@H](COC(N)=O)c2ccc(-c3cccc4ccncc34)cc2)cs1 [Compound A49, (R)-2-(3-(2-Ethynylthiazol-4-yl)ureido)-2-(4-(isoquinolin-8-yl)phenyl)ethyl carbamate]	≤ 200 nM	
C#Cc1nc(NC(=O)N[C@@H](CO)C(=O)N2CCC(N3CC(F)(F)C3)CC2)cs1 [Compound A159, (S)-1-(1-(4-(3,3-Difluoroazetidin-1-yl)piperidin-1-yl)-3-hydroxy-1-oxopropan-2-yl)-3-(2-ethynylthiazol-4-yl)urea]	> 5000 nM	
C#Cc1nc(NC(=O)N[C@@H](CO)c2ccc(-c3cccc4ccnc(O)c34)c(Cl)c2)cs1 [Compound A107, (R)-1-(1-(3-Chloro-4-(1-hydroxyisoquinolin-8-yl)phenyl)-2-hydroxyethyl)-3-(2-ethynylthiazol-4-yl)urea]	≤ 200 nM	
C#Cc1nc(NC(=O)N[C@@H](COC(=O)CCC/C=C\C/C=C\C/C=C\C/C=C\CCCCC)c2ccc(-c3cccc4ncsc34)cc2)cs1 [Compound A117, (5Z,8Z,11Z,14Z)—(R)-2-(4-(Benzo[d]thiazol-7-yl)phenyl)-2-(3-(2-ethynylthiazol-4-yl)ureido)ethyl icosa-5,8,11,14-tetraenoate]	≤ 200 nM	
C#Cc1nnc(NC(=O)N[C@@H](CO)c2ccc(-c3cccnc3C3(C#N)CC3)c(Cl)c2)s1 [Compound A71, (R)-1-(1-(3-Chloro-4-(2-(1-cyanocyclopropyl)pyridin-3-yl)phenyl)-2-hydroxy-ethyl)-3-(5-ethynyl-1,3,4-thiadiazol-2-yl)urea]	≤ 200 nM	
C#Cc1nc(NC(=O)N[C@@H](COC(N)=O)c2ccc(-c3cc(C#N)ccn3)cc2)cs1 [Compound A48, (R)-2-(4-(4-Cyanopyridin-2-yl)phenyl)-2-(3-(2-ethynylthiazol-4-yl)ureido)ethyl carbamate]	≤ 200 nM	
C#Cc1nc(NC(=O)N[C@@H](CO)c2ccc(C3=C(C#N)CCCC3)cc2)cs1 [Compound A141, (R)-1-(1-(6′-Cyano-2′,3′,4′,5′-tetrahydro-[1,1′-biphenyl]-4-yl)-2-hydroxyethyl)-3-(2-ethynylthiazol-4-yl)urea]	≤ 200 nM	
C#Cc1nc(NC(=O)N[C@@H](COC(N)=O)c2ccc(-c3cccnc3C3(C#N)CC3)c(Cl)c2)cs1 [Compound A69, (R)-2-(3-Chloro-4-(2-(1-cyanocyclopropyl)pyridin-3-yl)phenyl)-2-(3-(2-ethynyl-thiazol-4-yl)ureido)ethyl carbamate]	≤ 200 nM	
C#Cc1nc(NC(=O)N(C)[C@@H](CO)c2ccc(-c3cccc(N4CCCC4)n3)cn2)cs1 [Compound A91, (R)-3-(2-Ethynylthiazol-4-yl)-1-(2-hydroxy-1-(6-(pyrrolidin-1-yl)-[2,3′-bipyridin]-6′-yl)ethyl)-1-methylurea]	≤ 200 nM	
C#Cc1nc(NC(=O)N(C)[C@@H](COC(N)=O)c2ccc(-c3cccnc3C3(C#N)CC3)c(Cl)c2)cs1 [Compound A70, (R)-2-(3-Chloro-4-(2-(1-cyanocyclopropyl)pyridin-3-yl)phenyl)-2-(3-(2-ethynyl-thiazol-4-yl)-1-methylureido)ethyl carbamate]	≤ 200 nM	
C#Cc1nc(NC(=O)N[C@@H](CO)c2ccc(-c3c(F)cc(F)cc3C3(C#N)CC3)cn2)cs1 [Compound A79, (R)-1-(1-(5-(2-(1-Cyanocyclopropyl)-4,6-difluorophenyl)pyridin-2-yl)-2-hydroxyethyl)-3-(2-ethynylthiazol-4-yl)urea]	≤ 200 nM	
C#Cc1nc(NC(=O)N[C@H](CO)C(=O)N2CC(c3ccccc3C#N)C2)cs1 [Compound A144, (R)-1-(1-(3-(2-Cyanophenyl)azetidin-1-yl)-3-hydroxy-1-oxopropan-2-yl)-3-(2-ethynylthiazol-4-yl)urea]	200 to 1000 nM	
C#Cc1nc(NC(=O)N[C@@H](CO)c2ccc(N3CCCC3=O)cc2)cs1 [Compound A129, (R)-1-(2-Ethynylthiazol-4-yl)-3-(2-hydroxy-1-(4-(2-oxopyrrolidin-1-yl)phenyl)-ethyl)urea]	≤ 200 nM	
C#Cc1nc(NC(=O)Nc2ncnc3c(F)c(-c4cccc5ncsc45)c(Cl)cc23)cs1 [Compound A165, 1-(7-(Benzo[d]thiazol-7-yl)-6-chloro-8-fluoroquinazolin-4-yl)-3-(2-ethynyl-thiazol-4-yl)urea]	≤ 200 nM	
C#Cc1nc(NC(=O)NCc2ccc(-c3ccccc3)cc2)cs1 [Compound A8, 1-([1,1′-Biphenyl]-4-ylmethyl)-3-(2-ethynylthiazol-4-yl)urea]		≤ 200 nM

Second part, the molecule after the results:

EC50 [1]	EC50 [2]	Compound
≤ 200 nM		C#Cc1nc(NC(=O)N2CCN(c3ccc(-c4cccc5ncsc45)cc3)C[C@H]2CO)cs1 [Compound B23, (S)-4-(4-(Benzo[d]thiazol-7-yl)phenyl)-N-(2-ethynylthiazol-4-yl)-2-(hydroxy-methyl)piperazine-1-carboxamide]
≤ 200 nM		C#Cc1nc(NC(=O)N2CCN(c3ccc(-c4cccc(N5CCCC5)c4)cc3)C[C@H]2CO)cs1 [Compound B52, (S)—N-(2-Ethynylthiazol-4-yl)-2-(hydroxymethyl)-4-(3′-(pyrrolidin-1-yl)-[1,1′-biphenyl]-4-yl)piperazine-1-carboxamide]
≤ 200 nM		C#Cc1nc(NC(=O)N2CCN(c3ccc(-c4cccc(N5CCCC5)c4)cc3C#N)C[C@@H]2CO)cs1 [Compound B53, (R)-4-(3-Cyano-3′-(pyrrolidin-1-yl)-[1,1′-biphenyl]-4-yl)-N-(2-ethynylthiazol-4-yl)-2-(hydroxymethyl)piperazine-1-carboxamide]
	200 to 1000 nM	C#Cc1nc(C(=O)NCCc2ccccc2Cl)cs1 [Compound C106, N-(2-Chlorophenethyl)-2-ethynylthiazole-4-carboxamide]
	≤ 200 nM	C#Cc1nc(C(=O)NCCc2ccc(-c3ccccc3S(=O)(=O)N(C)C)cc2)cs1 [Compound C6, N-(2-(2′-(N,N-Dimethylsulfamoyl)-[1,1′-biphenyl]-4-yl)ethyl)-2-ethynylthiazole-4-carboxamide]
	≤ 200 nM	C#Cc1nc(C(=O)NCCc2ccc(-c3c(F)ccc4ncsc34)cc2)cs1 [Compound C5, 2-Ethynyl-N-(4-(6-fluorobenzo[d]thiazol-7-yl)phenethyl)thiazole-4-carboxamide]
	200 to 1000 nM	C#Cc1nc(C(=O)NC2Cc3ccccc3C2)cs1 [Compound C62, N-(2,3-Dihydro-1H-inden-2-yl)-2-ethynylthiazole-4-carboxamide]
	> 5000 nM	C#Cc1nc(C(=O)NCc2ccccc2NC(C)=O)cs1 [Compound C136, N-(2-Acetamidobenzyl)-2-ethynylthiazole-4-carboxamide]
	1000 to 5000 nM	C#Cc1nc(C(=O)NCc2ccc(-c3cccc4c3CC(=O)N4)cc2)cs1 [Compound C37, 2-Ethynyl-N-(4-(2-oxoindolin-4-yl)benzyl)thiazole-4-carboxamide]
	200 to 1000 nM	C#Cc1nc(C(=O)NCc2ccccc2C(=O)OC)cs1 [Compound C74, Methyl 2-((2-ethynylthiazole-4-carboxamido)methyl)benzoate]
	> 5000 nM	C#Cc1nc(C(=O)N2CCCCC2CCO)cs1 (centres unmarked) [Compound D32, (2-Ethynylthiazol-4-yl)(2-(2-hydroxyethyl)piperidin-1-yl)methanone]
	200 to 1000 nM	C#Cc1nc(C(=O)NCCc2cccc(-c3cccc4c3ccn4C)c2)cs1 [Compound C35, 2-Ethynyl-N-(3-(1-methyl-1H-indol-4-yl)phenethyl)thiazole-4-carboxamide]
	200 to 1000 nM	C#Cc1nc(C(=O)NCCc2ccc(-c3cc(C(N)=O)cc4ncsc34)cc2)cs1 [Compound C8, 7-(4-(2-(2-Ethynylthiazole-4-carboxamido)ethyl)phenyl)benzo[d]thiazole-5-carboxamide]
	200 to 1000 nM	C#Cc1nc(NC(=O)CCc2ccc3c(c2)OCO3)cs1 [Compound E9, 3-(Benzo[d][1,3]dioxol-5-yl)-N-(2-ethynylthiazol-4-yl)propanamide]
	≤ 200 nM	C#Cc1nc(C(=O)N2CCN(c3ccc(-c4cccc5ncsc45)cn3)CC2)cs1 [Compound D10, (4-(5-(Benzo[d]thiazol-7-yl)pyridin-2-yl)piperazin-1-yl)(2-ethynylthiazol-4-yl)-methanone]
	1000 to 5000 nM	C#Cc1nc(C(=O)NCc2ccc3ncsc3c2)cs1 [Compound C66, N-(Benzo[d]thiazol-6-ylmethyl)-2-ethynylthiazole-4-carboxamide]
	> 5000 nM	C#Cc1nc(C(=O)N2CCCC(CO)C2)cs1 (centres unmarked) [Compound D33, (2-Ethynylthiazol-4-yl)(3-(hydroxymethyl)piperidin-1-yl)methanone]
